Reference: article PMC10360056, “Chemical Evolution of Amphiphilic Xenopeptides for Potentiated Cas9 Ribonucleoprotein Delivery” (Journal of the American Chemical Society, 2023)

Legend:
[1] = LogD7.4 determination of xenopeptides (octanol-water); format: physicochemical; conditions: shake-flask n-octanol/HEPES buffer (20 mM, pH 7.4); 10 μL of 10 mg/mL xenopeptide in water + 90 μL buffer + 100 μL n-octanol; shaken 1400 rpm 24 h; centrifuged, 4 °C 1 h; HPLC, extinction 280 nm; log(Aoctanol/Awater); triplicate
Procedure: LogD7.4 determination of xenopeptides
Octanol-water partition coefficient D at pH 7.4 (logD7.4) was determined as previously reported with slight modification.5
Scheme S3 illustrates the logD7.4 determination procedures of all xenopeptides in this study. Briefly, 10 μL of 10 mg/mL xenopeptides in water were diluted with 90 μL HEPES buffer (20 mM, pH 7.4) in 1.5 mL reaction tubes. 100 μL n-octanol were then added. The tubes were shaken at 1400 rpm for 24 h. Afterwards, the tubes were centrifuged followed by storage at 4 °C for 1 h to separate n-octanol and water phases. 70 μL of each phase were injected for HPLC analysis. The extinction at 280 nm was monitored and the peak area (A) of the xenopeptides was calculated. LogD7.4 was calculated as log(Aoctanol / Awater).
All experiments were performed in triplicate. […]
Cas9 RNP/ssDNA nanocarriers. […]

[2] = Characterization of Cas9 RNP nanocarriers by DLS (size, PDI, zeta potential); format: physicochemical; conditions: N/P ratio 24, RNP 75 nM, three technical replicates; for PDI of Cas9 RNP nanocarriers / hydrodynamic size (z-average) of Cas9 RNP nanocarriers: DLS, HBG pH 7.4, mean ± SD; for zeta potential of Cas9 RNP nanocarriers: electrophoretic light scattering, HEPES 20 mM pH 7.4, mean ± SD
Procedure: Preparation of Cas9 RNP and Cas9 RNP/ssDNA nanocarriers
Cas9 protein was expressed, purified, and stored at -80 °C in storage buffer (20 mM HEPES, 200 mM KCl, 10 mM MgCl 2, 1 mM DTT, 30 % glycerol) as described previously.6 Cas9 protein and sgRNA (dissolved in RNase-free water) were mixed at 1:1 molar ratio and incubated at RT for 15 min to form the Cas9/sgRNA ribonucleoprotein (RNP) complexes. Afterwards, Cas9 RNP was added into the xenopeptide solution in HBG buffer (pH 7.4) at an N/P (nitrogen t o phosphate of sgRNA) ratio of 24. The solution was mixed thoroughly by pipetting up and down and incubated at RT for another 15 min to generate the final Cas9 RNP nanocarriers. In case of preparing Cas9 RNP/ssDNA nanocarriers for HDR experiments, Cas9 RNP was mixed with ssDNA HDR template at 1:1 molar ratio and then added into the xenopeptide solution in HBG buffer (pH 7.4) at an N/P (nitrogen to phosphate of sgRNA plus ssDNA) ratio of 12. The solution was mixed and incubated for 40 min to generate the Cas9 RNP/ssDNA nanocarriers.
Characterization of Cas9 RNP nanocarriers
The hydrodynamic size, PDI and zeta potential of Cas9 RNP nanocarriers were measured by DLS using a Zetasizer Nano ZS (Malvern Instruments, UK). Cas9 RNP nanocarriers were prepared as desc ribed above. The hydrodynamic size of Cas9 RNP nanocarriers containing 1.25 μg Cas9 protein and 0.25 μg sgRNA (Cas9/sgRNA, 1:1 molar ratio) in 100 μL HBG was measured.
Afterwards, 700 μL HEPES buffer (20 mM, pH 7.4) were added to each sample and the soluti on was mixed for the zeta potential measurement. For the dilution stability study, Cas9 RNP nanocarriers were prepared at an RNP concentration of 375 nM (6.25 μg Cas9 protein and 1.25 μg sgRNA) and then diluted with HBG buffer to a series of RNP concentrat ions (75, 50, 25, 10, 5, 2.5, 1, 0.5, and 0.1 nM). The size and zeta potential of diluted samples were measured as described above.

HeLa eGFP/tub cells = test: eGFP knockout study by Cas9 RNP nanocarriers, flow cytometry; format: cell-based; conditions: 1 nM RNP, 48 h treatment, N/P 24
Procedure: HeLa WT, HeLa eGFP/tub, HeLa GFPd2 (destabilized eGFP), CT26 eGFP/luc and N2a eGFP/luc cells were grown in DMEM medium supplemented with 10 % FBS, 100 U/mL penicillin, and 100 μg/mL streptomycin. The cells were cultured in ventilated flasks in the cell incubator at 37 °C and 5 % CO2 in a humidified atmosphere. The cells were passaged at a confluency of […]
Cells were harvested and resuspended in 600 μL of FACS buffer (PBS buffer containing 10 % FBS). The samples were ana-lyzed by flow cytometry on a CytoFLEX S flow cytometer (Beckman Coulter, CA, USA). For eGFP knockout and cellular uptake experiments, 0.6 μL of 1 μg/μL DAPI was added to each sample for differentiating live and dead cells before the measurement. The DAPI signal and BFP fluorescence were detected with 405 nm excitation and 450 nm emission. The eGFP and ATTO488 fluorescence was assayed with 488 nm excitation and 530 nm emission. The ATTO647N fluorescence was assayed with 640 nm excitation and 670 nm emission. Ten thousand of isolated live cells were counted and evaluated. The data were analyzed using FlowJo 7.6.5 by FlowJo, LLC (Becton, Dickinson and Company, USA). […]
Endosomal escape of Cas9 RNP nanocarriers […]
Next, the […]
cells were washed twice with PBS and then fixed with 4 % PFA at RT for 40 min. Afterwards, the cells were washed and incubated with 2 µg/mL DAPI (for staining cell nuclei) for 30 min. Then, the staining solution was removed and 300 μL fresh PBS were added. The slides w ere stored at 4 °C in the dark until the measurement. […]
Then, the image was conv erted into 8-bit type. The mRuby3/gal8 spots were further determined by Threshold tool, and the number of the spots in the cell cytosol per cell were counted by Analyze Particles tool.
One day prior to the treatments, HeLa eGFP/tub cell s were seeded into 96 -well plates at a density of 5000 cells/well. On the next day, the medium was replaced with 80 μL of fresh medium. 20 μL of Cas9 RNP nanocarriers were added to each well resulting in a series of concentrations of RNP (100, 75, 50, 25, 10, 5, 2.5, 1, 0.5, and 0.1 nM). Lipofectamine CRISPRMAX was tested at the same concentrations of RNP with the preparation procedures as recommended by the manufacturer. The cells were incubated for 48 h. Afterwards, the cells were trypsinized and transfer red to 24-well plates, and incubated for another 72 h. Then, the cells were harvested and prepared for flow cytometry analysis. All experiments were performed in triplicate. eGFP to BFP conversion (HDR) study
One day prior to the treatments, HeLa GFPd2 cel ls were seeded into 96 -well plates at a density of 5000 cells/well. On the next day, the medium was replaced with 80 μL of fresh medium. 20 μL of Cas9 RNP/ssDNA nanocarriers containing different molar ratios of RNP/ssDNA were added to each well resulting i n a series of concentrations of RNP (100, 75, 50, 25, 10, 5, 2.5, 1, 0.5, and 0.1 nM). Lipofectamine CRISPRMAX was tested at the same concentrations of RNP and ssDNA with the prepara-tion procedures as recommended by the manufacturer. The cells were incubat ed for 48 h. Afterwards, the cells were trypsinized and transferred to 24 -well plates, and incubated for another 72 h. Then, the cells were harvested and prepared for flow cytom-etry analysis. […]
Half maximal effective concentration (EC50) values were calculated by GraphPad prism 5. […] All other data were analyzed with GraphPad prism 5 and presented as arithmetic mean ± standard deviation (SD) of at least triplicates. […]

Compound	logD [1]	PDI of Cas9 RNP nanocarriers [2]	hydrodynamic size (z-average) of Cas9 RNP nanocarriers [2] [nm]	zeta potential of Cas9 RNP nanocarriers [2] [mV]	eGFP knockout (HeLa eGFP/tub cells) [%]
CCCCC/C=C\C/C=C\CCCCCCCC(=O)NCCCC[C@H](NC(=O)CCCCCCC/C=C\C/C=C\CCCCC)C(=O)NCCCC[C@H](NC(=O)CCCC(=O)NCCCNCCNCCCNC(=O)[C@H](Cc1ccc(O)cc1)NC(=O)[C@H](Cc1ccc(O)cc1)NC(=O)[C@H](Cc1ccc(O)cc1)NC(=O)[C@@H](N)CCCCN=[N+]=[N-])C(=O)NCCCNCCNCCCNC(=O)CCCC(=O)N[C@@H](Cc1ccc(O)cc1)C(=O)N[C@@H](Cc1ccc(O)cc1)C(=O)N[C@@H](Cc1ccc(O)cc1)C(=O)O [GEIPA1-LinA]	-0.33	–	–	–	–
K(N3)-C-Y3-GEIPA2-K(K(OHSteA)2)-GEIPA2-Y3-C [GEIPA2-C-OHSteA, lipid-modified xenopeptide, X2-C-OHSteA architecture, artificial amino acid GEIPA]	–	0.28 ± 0.02	179.8 ± 5.3	13.4 ± 2.1	–
CCCCC/C=C\C/C=C\CCCCCCCC(=O)NCCCC[C@H](NC(=O)CCCCCCC/C=C\C/C=C\CCCCC)C(=O)NCCCC[C@H](NC(=O)[C@H](Cc1c[nH]cn1)NC(=O)CNCC(=O)NCCNCCNCCNCCNC(=O)[C@H](Cc1c[nH]cn1)NC(=O)[C@H](Cc1ccc(O)cc1)NC(=O)[C@H](Cc1ccc(O)cc1)NC(=O)[C@H](Cc1ccc(O)cc1)NC(=O)[C@@H](N)CCCCN=[N+]=[N-])C(=O)N[C@@H](Cc1c[nH]cn1)C(=O)NCCNCCNCCNCCNC(=O)CNCC(=O)N[C@@H](Cc1c[nH]cn1)C(=O)N[C@@H](Cc1ccc(O)cc1)C(=O)N[C@@H](Cc1ccc(O)cc1)C(=O)N[C@@H](Cc1ccc(O)cc1)C(=O)O [IDAtp1-H-LinA]	-1.51	0.19 ± 0.02	189.1 ± 4.2	13.7 ± 1.2	–
CCCCC/C=C\C/C=C\CCCCCCCC(=O)NCCCC[C@H](NC(=O)CCCCCCC/C=C\C/C=C\CCCCC)C(=O)NCCCC[C@H](NC(=O)[C@H](Cc1c[nH]cn1)NC(=O)CCC(=O)NCCNCCNCCNCCNC(=O)[C@H](Cc1c[nH]cn1)NC(=O)[C@H](Cc1ccc(O)cc1)NC(=O)[C@H](Cc1ccc(O)cc1)NC(=O)[C@H](Cc1ccc(O)cc1)NC(=O)[C@@H](N)CCCCN=[N+]=[N-])C(=O)N[C@@H](Cc1c[nH]cn1)C(=O)NCCNCCNCCNCCNC(=O)CCC(=O)N[C@@H](Cc1c[nH]cn1)C(=O)N[C@@H](Cc1ccc(O)cc1)C(=O)N[C@@H](Cc1ccc(O)cc1)C(=O)N[C@@H](Cc1ccc(O)cc1)C(=O)O [Stp1-H-LinA]	–	–	–	–	~80
CCCCC/C=C\C/C=C\CCCCCCCC(=O)NCCCC[C@H](NC(=O)CCCCCCC/C=C\C/C=C\CCCCC)C(=O)NCCCC[C@H](NC(=O)CNCC(=O)NCCNCCNCCNCCNC(=O)[C@H](Cc1ccc(O)cc1)NC(=O)[C@H](Cc1ccc(O)cc1)NC(=O)[C@H](Cc1ccc(O)cc1)NC(=O)[C@@H](N)CCCCN=[N+]=[N-])C(=O)NCCNCCNCCNCCNC(=O)CNCC(=O)N[C@@H](Cc1ccc(O)cc1)C(=O)N[C@@H](Cc1ccc(O)cc1)C(=O)N[C@@H](Cc1ccc(O)cc1)C(=O)O [IDAtp1-LinA]	-1.11	–	–	–	–
